# Entries after “also recorded” stand apart in the source; their conditions may differ.
# Assays:
# HBMVECs = assay: PMA-induced oxidative stress in HBMVECs with or without NOX inhibitor; ROS, HO-1 and cilia proteins by flow cytometry (MFI); type: cell-based, human
# Protocol: Primary HBMVECs (Cell Systems Corporation catalog ACBRI 376) and HUVECs (Glyco Tech) were maintained at 37° C. in a 5% CO2 incubator in endothelial cell complete medium (Promocell, catalog C22010). As per vendor's description, cells were isolated from the cortex region of the brain from a pediatric donor. The cells were isolated without using antibody labeling to preserve the cells' natural properties for enhanced biological relevance. LL-CPK1 (CL101.1TM) porcine renal epithelial cells from proximal tubule were obtained from ATCC. All cell culture wells were seeded equally, and wells were randomized to control versus experimental conditions with duplicates or triplicates per condition. All experiments were performed between passages 4 and 6. Cells that had reached approximately 90% confluence were used in the shear stress experiment. For ROS quantification experiments, cells were treated with PMA (Sigma, catalog P8139-5MG) at a concentration of 50 ng/mL for 1 hour. To inhibit ROS production in respective experimental groups, cells were treated with 20 μM NOX inhibitor VAS 2870 (Sigma, catalog SML0273-5MG) 1 hour prior to PMA treatment.
# Single-cell suspensions were washed 3 times with FACS buffer (1×PBS with 5% FBS and 0.1% NaN3) at 300 g for 5 minutes and were subsequently incubated with Live/Dead fixable yellow dead cell stain as per manufacturer's protocol, to exclude any dead cells, wherever applicable. Then, cells were fixed and permeabilized using Cytofix/Cytoperm buffer (BD, catalog 554722) or transcription factor buffer set (BD, catalog 562574) and stained for the following proteins: ARL13b, IFT88, Inversin, Dynein, γ-tubulin, Alk1, KLF4, HO-1, NRF2, and bACTIN. Suitable secondary reagents were used to detect the respective proteins. Primary antibodies were diluted 1:50, and secondary antibodies were diluted 1:500. BD perm wash buffer (catalog 554723) was used for antibody dilutions and washing. Primary antibodies were incubated for 45 minutes and secondaries for 30 minutes at 4° C. Suitable secondary antibody controls were included. To quantify total ROS, assay kit was used as per the manufacturer's instruction (Thermo Fisher Scientific, catalog 88-5930-74). After the completion of staining, cells were resuspended in FACS buffer. Stained cells were run on a flow cytometer (BD LSRFortessa). Sample acquisition was done using FACSDiva software (BD) with subsequent analysis on FlowJo software. To determine the presence of the ciliary protein ARL13b on human RBCs, unlabeled RBCs prior to infusion into the variable height flow chamber, and effluent containing RBCs collected postflow and RBCs postinteraction with brain ECs, were labeled with FITC-conjugated Arl13b antibody for 30 minutes on ice. RBCs were then washed and tested by flow cytometric analysis as previously described (49). To determine whether ROS generation in brain ECs can be increased by sickle RBCs and contributes to deciliation, slides coated with brain ECs were sham-treated or pretreated with the NOX inhibitor apocynin at 10 μM for 1 hour at 37° C., washed, and fitted into the flow chamber. Treated brain ECs were then exposed to unlabeled sickle RBCs for 10 minutes. Sickle RBCs were lysed with RBC lysis buffer and brain ECs scraped from the glass slide for testing for ROS levels using CM-H2-DCFDA (Invitrogen) as described previously in detail (50). One hundred thousand events per sample were acquired and tested by flow cytometric analysis. In separate experiments, and as described above, unlabeled sickle RBCs were tested by flow cytometry for ARL13b ciliary protein binding prior to infusion into the chamber (baseline levels) and postflow and once sickle RBCs interacted with brain ECs treated with 10 μM apocynin.
# ARL13b on SS RBCs = assay: ARL13b bound to SS RBCs before and after flow chamber interaction with apocynin-pretreated brain ECs (flow cytometry); type: cell-based, human; conditions: ECs treated with 10 μM apocynin
# Protocol: HBMVECs were cultured until they reached confluence on clear glass slides precoated with 2% gelatin. Slides coated with brain ECs were washed, then fit into a variable height flow chamber and tested for their ability to support adhesion of RBCs. The flow chamber was mounted on the stage of an inverted phase contrast microscope (Diaphot, Nikon Inc.) connected to a thermoplate (Tokai Hit Co., Ltd.) set at 37° C. Fluorescence-labeled RBCs suspended at 0.2% (v/v) in PBS with Ca^2+ and Mg^2+ were infused into the flow chamber and allowed to adhere to brain ECs for 10 minutes without flow. Before exposure to flow, a minimum of 3 fields at each of 7 different locations along a line oriented to future flow were examined, and the total number of fluorescent cells was counted. Fluid flow (PBS with Ca^2+ and Mg^2+) with a calibrated syringe pump was then started for a period of 15 minutes. Effluent was collected and tested by flow cytometry for cilia shedding from brain ECs by RBC contact. After exposure to flow, the fields were examined, and the number of fluorescent adherent RBCs to brain ECs was counted. The fraction of adherent cells was presented as number of cells attached per field after exposure to flow/total number of cells present per field before flow. […] To quantify total ROS, assay kit was used as per the manufacturer's instruction (Thermo Fisher Scientific, catalog 88-5930-74). […]
# [1] = system: Human brain microvascular ECs; assay: ROS generation in brain ECs exposed to sickle RBCs (CM-H2-DCFDA, flow cytometry); type: cell-based; conditions: brain ECs pretreated with apocynin 10 μM for 1 hour, then exposed to SS RBCs for 10 minutes; P<0.0001
# Protocol: Single-cell suspensions were washed 3 times with FACS buffer (1×PBS with 5% FBS and 0.1% NaN3) at 300 g for 5 minutes and were subsequently incubated with Live/Dead fixable yellow dead cell stain as per manufacturer's protocol, to exclude any dead cells, wherever applicable. Then, cells were fixed and permeabilized using Cytofix/Cytoperm buffer (BD, catalog 554722) or transcription factor buffer set (BD, catalog 562574) and stained for the following proteins: ARL13b, IFT88, Inversin, Dynein, γ-tubulin, Alk1, KLF4, HO-1, NRF2, and bACTIN. Suitable secondary reagents were used to detect the respective proteins. Primary antibodies were diluted 1:50, and secondary antibodies were diluted 1:500. BD perm wash buffer (catalog 554723) was used for antibody dilutions and washing. Primary antibodies were incubated for 45 minutes and secondaries for 30 minutes at 4° C. Suitable secondary antibody controls were included. To quantify total ROS, assay kit was used as per the manufacturer's instruction (Thermo Fisher Scientific, catalog 88-5930-74). After the completion of staining, cells were resuspended in FACS buffer. Stained cells were run on a flow cytometer (BD LSRFortessa). Sample acquisition was done using FACSDiva software (BD) with subsequent analysis on FlowJo software. […]
# [2] = PMA 50 ng/mL for 1 hour vs untreated
# [3] = 20 μM VAS2870 1 hour prior to PMA 50 ng/mL
smiles,measurement,setting,value
CCCCCCCCCCCCCC(=O)O[C@@H]1[C@@H](C)[C@@]2(O)[C@@H](C=C(CO)C[C@]3(O)C(=O)C(C)=C[C@@H]23)[C@@H]2C(C)(C)[C@]12OC(C)=O [PMA],HO-1 levels,HBMVECs; [2],lower
same,"cilia-associated proteins NRF2, IFT88 and γ-tubulin levels",HBMVECs; [2],downregulated; also recorded: reduced; also recorded: decreased
same,total ROS,HBMVECs; [2],induced ROS; also recorded: enhanced total ROS
c1ccc(Cn2nnc3c(Sc4nc5ccccc5o4)ncnc32)cc1 [VAS2870],HO-1 levels,HBMVECs; [3],restored to control levels
same,"cilia-associated proteins NRF2, IFT88 and γ-tubulin levels",HBMVECs; [3],rescued; also recorded: restored to baseline; also recorded: returned to baseline
same,total ROS,"HBMVECs; 20 μM VAS2870 1 hour prior to PMA 50 ng/mL, vs PMA alone",partially attenuated; also recorded: quenched ROS production
COc1cc(C(C)=O)ccc1O [apocynin],cilia protein expression on sickle RBCs exposed to apocynin-treated brain ECs (in words),ARL13b on SS RBCs,decreased cilia protein expression
same,ARL13b expression on SS RBCs after exposure to apocynin-treated brain ECs,"ARL13b on SS RBCs; before exposure SS RBCs showed approximately 35% ARL13b, P<0.05, n=6",approximately 20%
same,ROS generation in ECs,[1],reduced ROS generation in ECs to baseline levels

# From patent US20240255521A1, “Cilia Protein as Biomarkers and Methods of Use” (The Medical College of Wisconsin, Inc., priority 2021, published 2024)
